The target in series [1] is T1, Type III PDE isolated from human platelets (Homo sapiens, UniProt Q14432).
T1 construct: Fractions containing PDE III activity are pooled and dialyzed overnight; from tissue; host or cells: human platelets (100,000 x g supernatant, DEAE-Trisacryl M fraction)
The experiment in a line: Type III PDE inhibition, hydrolysis of [3H]-cyclic AMP. The class given is biochemical. Here is the method: The Type III PDE is isolated from human platelets using a procedure similar to that previously described by Weishaar, R. E. et al., Biochem. Pharmacol., 35:787, 1986. Briefly, 1-2 units of platelets are suspended in an equal volume of buffer (20 mM Tris-HCl, pH 7.5, containing 2 mM magnesium acetate, 1 mM dithiothreitol, and 5 mM Na2 EDTA). The proteinase inhibitor phenylmethyl-sulfonyl fluoride (PMSF) is also included in this buffer at a final concentration of 200 μM. The suspension is homogenized using a polytron and the homogenate centrifuged at 100,000×g for 60 minutes. This and all subsequent procedures are performed at 0-4° C. The supernatant is then filtered through four layers of gauze and applied to a DEAE-Trisacryl M column, previously equilibrated with buffer B (20 mM Tris-HCl, pH 7.5, containing 1 mM magnesium acetate, 1 mM dithiothreitol and 200 μM PMSF). After application of the sample, the column is washed with several bed volumes of buffer B, after which the different forms of PDE are eluted from the column using two successive linear NaCl gradients (0.05-0.15 M, 300 ml total; 0.15-0.40 Ma 200 ml total); Five ml fractions are collected and assayed for cyclic AMP and cyclic GMP PDE activity., Fractions containing PDE III activity are pooled and dialyzed overnight against 4 L of buffer B. The dialyzed PDE III is then concentrated to 10% of the original volume, diluted to 50% with ethylene glycol monoethyl ether and stored at −20° C. PDE III can typically be retained for up to four weeks with little or no loss of activity.
Enzyme activity is assessed by measuring the hydrolysis of [(^3H]-cyclic AMP, as described by Thompson, W. J. et al., Adv. Cyclic Nucleotide Res. 10:69, 1979. The cyclic AMP concentration used in this assay is 0.2 μM, which approximates to the Km value. Protein concentration is adjusted to ensure that no more than 15% of the available substrate is hydrolyzed during the incubation period.
(§1) All test compounds are dissolved in dimethyl sulfoxide (final concentration of 2.5%). This concentration of dimethyl sulfoxide inhibits enzyme activity by approximately 10%.
(§2) The compounds are tested over concentration range: 0.1, 1, 10, 100 uM (n=1), and IC50 determinations are made using 5 appropriate concentrations (n=2).

Series [2] deals with T2, Type V PDE isolated from platelets (Homo sapiens, UniProt O76074).
T2 construct: Fractions that contain PDE V are pooled and dialyzed overnight; from tissue
Kind of series: Type V PDE inhibition, hydrolysis of [3H]-cyclic GMP. The class given is biochemical. The following applies: cyclic GMP 0.2 uM; 2.5% DMSO. Here is the method:
The Type V PDE is isolated using a procedure similar to that previously described by Weishaar et al., Hypertension 15:528, (1990). Briefly, 1-2 units of platelets are suspended in an equal volume of buffer A (20 mM Tris-HCl, pH 7.5, containing 2 mM magnesium acetate, 1 mM dithiothreitol, and 5 mM Na2EDTA) using a polytron. The proteinase inhibitor phenylmethylsulfonyl fluoride (PMSF) are also included in this buffer at a final concentration of 200 uM. This and all subsequent procedures are performed at 0-4° C. The homogenate is then centrifuges at 100,000×g for 60 minutes. The supernatant is then removed and filtered through four layers of gauze and applied to a DEAE-Trisacryl M column. The column is washed with several bed volumes of buffer B (20 mM Tris-HCl, pH 7.5, containing 2 mM magnesium acetate, 1 mM diothiothreitol, and 200 uM PMSF) and eluted by two successive linear NaCl gradients (0.05-0.15 M, 300 ml total; 0.15-0.40 M, 200 ml total). Five ml fractions are collected and assayed for cyclic AMP and cyclic GMP PDE activity. Fractions that contain PDE V are pooled and dialyzed overnight against 4 L of buffer C (20 mm Tris-HCl, pH 7.5, containing 2 mM magnesium acetate and proteinase inhibitors). The dialyzed PDE V is then concentrated to 10% of the original volume, diluted to 50% with ethylene glycol monoethyl ether and stored at −20° C. PDE V can typically be retained for up to four weeks with little or no loss of activity.
Enzyme activity are assessed by measuring the hydrolysis of [^3H]-cyclic […], as described by Thompson et al. (Thompson, W. J., Teraski, W. L., Epstein, P. N., Strada, S. J.: Adv. Cyclic Nucleotide Res. 10:69, 1979). The cyclic GMP concentration used in this assay is 0.2 uM, which approximates to the Km value. Protein concentration is adjusted to ensure that no more than 15% of the available substrate is hydrolyzed during the incubation period.
All test compounds are dissolved in dimethyl sulfoxide (final concentration of 2.5%). […] The reference Type V PDE inhibitor zaprinast is evaluated with each assay.
as §2

Series [3] concerns PDE IV isolated from bovine tracheal smooth muscle. Kind of series: Type IV PDE inhibition, hydrolysis of [3H]-cyclic AMP. The following applies: cyclic AMP 0.2 μM; 2.5% DMSO. The class given is biochemical.
Excerpt: The PDE IV inhibitory compounds of the present invention may be examined for their PDE IV inhibitory effects via the techniques set forth in the following examples, wherein the ability of the compounds to inhibit PDE IV isolated from bovine tracheal smooth muscle is set forth.
The Type IV PDE is isolated from bovine tracheal smooth muscle using a procedure similar to that previously described by Silver, P. J. et al., Eur. J. Pharmacol. 150:85,1988. Briefly, smooth muscle from bovine trachea is minced and homogenized using a polytron in 10 volumes of an extraction buffer containing 10 mm Tris-acetate (pH 7.5), 2 mM magnesium chloride, 1 mM dithiothreitol and 2,000 units/ml of aprotinin. This and all subsequent procedures are performed at 0-4° C. The homogenate is sonicated and then centrifuged at 48,000×g for 30 minutes. The resulting supernatant is applied to a DEAE Trisacryl M column previously equilibrated with sodium acetate and dithiothreitol. After applications of the sample, the column is washed with sodium acetate/dithiothreitol, after which the different forms of PDE are eluted from the column using a linear Tris-HCl/NaCl gradient. Fractions containing Type IV PDE are collected, dialyzed and concentrated to 14% of the original volume. The concentrated fractions are diluted to 50% with ethylene glycol and stored at −20° C.
Enzyme activity is assessed by measuring the hydrolysis of [^3H]-cyclic AMP, as described by Thompson, W. J. et al., Adv. Cyclic Nucleotide Res. 10:69, 1979. The cyclic AMP concentration used in this assay is 0.2 μM, which approximates the Km value. Protein concentration is adjusted to ensure that no more than 15% of the available substrate is hydrolyzed during the incubation period.
as §1, §2

Where [4] appears, read: cyclic AMP 0.2 μM, 2.5% DMSO, read-out: PDE ACTIVITY IC50 PDE III.

Our source for the melting point and IC50 values is patent US6440979B1, “Aryl isoguanines” (Euro-Celtique, S.A., priority 1994, dated 2002).

The structures appear in SMILES notation. Read-outs that look alike come from different tables or passages of the source.

T1 sequence (Q14432 whole entry): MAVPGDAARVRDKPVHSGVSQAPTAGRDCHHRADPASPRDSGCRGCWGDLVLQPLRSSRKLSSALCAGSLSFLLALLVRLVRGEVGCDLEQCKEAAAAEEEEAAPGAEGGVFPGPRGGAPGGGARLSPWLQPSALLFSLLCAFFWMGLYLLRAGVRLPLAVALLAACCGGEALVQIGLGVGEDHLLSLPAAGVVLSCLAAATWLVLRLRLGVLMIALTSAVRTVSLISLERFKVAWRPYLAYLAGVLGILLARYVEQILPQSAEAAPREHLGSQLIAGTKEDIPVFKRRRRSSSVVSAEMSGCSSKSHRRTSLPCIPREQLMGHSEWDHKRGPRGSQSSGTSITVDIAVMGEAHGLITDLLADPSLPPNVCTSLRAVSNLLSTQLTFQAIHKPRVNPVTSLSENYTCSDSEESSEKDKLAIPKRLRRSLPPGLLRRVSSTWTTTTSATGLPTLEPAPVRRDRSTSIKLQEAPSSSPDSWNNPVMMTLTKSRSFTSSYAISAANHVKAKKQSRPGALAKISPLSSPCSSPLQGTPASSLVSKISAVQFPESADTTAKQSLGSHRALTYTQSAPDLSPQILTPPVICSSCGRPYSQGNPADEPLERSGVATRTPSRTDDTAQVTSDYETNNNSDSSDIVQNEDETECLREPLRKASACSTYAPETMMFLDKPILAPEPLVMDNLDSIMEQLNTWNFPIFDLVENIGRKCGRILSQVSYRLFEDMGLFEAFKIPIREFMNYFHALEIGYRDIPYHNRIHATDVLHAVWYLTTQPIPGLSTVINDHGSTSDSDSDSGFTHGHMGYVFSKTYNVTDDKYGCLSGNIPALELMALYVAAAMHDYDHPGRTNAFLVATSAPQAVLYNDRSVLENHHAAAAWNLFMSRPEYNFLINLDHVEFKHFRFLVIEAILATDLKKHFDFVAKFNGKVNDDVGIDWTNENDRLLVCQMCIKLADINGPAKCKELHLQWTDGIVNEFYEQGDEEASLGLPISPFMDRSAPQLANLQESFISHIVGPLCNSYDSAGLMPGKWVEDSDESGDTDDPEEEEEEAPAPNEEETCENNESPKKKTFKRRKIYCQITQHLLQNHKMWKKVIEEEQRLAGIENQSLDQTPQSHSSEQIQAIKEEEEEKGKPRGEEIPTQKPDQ

The compound `COc1ccc(Cn2c(=O)[nH]c(=S)c3[nH]c(C(C)C)nc32)cc1OC1CCCC1` (hydrate or solvate) [Ex. 1, 3-(3-Cyclopentyloxy-4-methoxy-benzyl)-8-isopropyl-6-thioxanthine] yielded a melting point of 192 to 193 °C.
Consider `COc1ccc(Cn2c(=O)[nH]c(=S)c3[nH]c(C(C)C)nc32)cc1OC1CCCC1` [Ex. 1, 3-(3-Cyclopentyloxy-4-methoxy-benzyl)-8-isopropyl-6-thioxanthine], for which the values for the concentration for half-maximal inhibition (IC50) in series [1] (setting [4]), in series [1] (read-out: IC50 for PDE III inhibition) and in series [2] were 25 µM, ~25 µM and 25.7 µM, respectively.
In turn, `O=c1[nH]c(=S)c2[nH]cnc2n1Cc1ccc(Cl)cc1` [Ex. 2, 3-(4-Chlorobenzyl)-6-thioxanthine] registered a melting point of 313 to 317 °C. This compound also displayed an IC50 in series [3] of 78 µM. Also, the IC50 in series [1] (setting [4]) stood at 25 µM.
As to `CC(C)c1nc2c([nH]1)c(=S)[nH]c(=O)n2Cc1ccncc1` [Ex. 3, 8-Isopropyl-3-(4-picolyl)-6-thioxanthine], the melting point was 310 to 314 °C (dec.). In series [3], the IC50 turned out to be 18.2 µM. For the same compound, the IC50 in series [1] (setting [4]) came out at 215 µM.
With `CC(C)c1nc2c([nH]1)c(=S)[nH]c(=O)n2Cc1cccc(Cl)c1` [Ex. 4, 3-(3-Chlorobenzyl)-8-isopropyl-6-thioxanthine], the melting point is 218 to 220 °C. The same compound returned an IC50 in series [3] of 4.1 µM. Moreover, the IC50 in series [1] (setting [4]) is 44 µM. Besides, the IC50 in series [2] is 0.7 µM.
Take `CC(C)c1nc2c([nH]1)c(=S)[nH]c(=O)n2Cc1ccc(Cl)cc1` [Ex. 5a, 3-(4-Chlorobenzyl)-8-isopropyl-6-thioxanthine]: the IC50 is 8.6 µM in series [3], 29 µM in series [1] (setting [4]) and 2 µM in series [2].
For `CCNc1nc(=O)n(Cc2ccc(Cl)cc2)c2nc(C(C)C)[nH]c12` [Ex. 5b, 3-(4-Chlorobenzyl)-N^6-ethyl-8-isopropyl-isoguanine] the same measures were 9.4 µM, 317 µM and 0.5 µM.
Regarding `CCCNc1nc(=O)n(CC2CC2)c2nc(C(C)C)[nH]c12` [Ex. 6, 3-Cyclopropylmethyl-8-isopropyl-N^6-propyl-isoguanine], the melting point lay in the range of 208 to 210 °C. Also, in series [3], the IC50 was 24 µM. Also, the concentration for half-maximal inhibition (IC50) in series [1] (setting [4]) is 492 µM.
For `CCNc1nc(=O)n(CC)c2nc(C3CC3)[nH]c12` [Ex. 7, 8-Cyclopropyl-3, N^6-diethyl-isoguanine], the results for the 50% inhibitory concentration (IC50) in series [3] and in series [1] (setting [4]) were 51 µM and 207 µM, respectively.
`CCn1c(=O)[nH]c(=S)c2[nH]c(Cc3ccc(OC)c(OC4CCCC4)c3)nc21` [Ex. 8, 8-(3-cyclopentyloxy-4-methoxybenzyl)-3-ethyl-6-thio-xanthine] registered a melting point of 195 to 197 °C. Further, the IC50 in series [3] turned out to be 4 µM. Also, the concentration for half-maximal inhibition (IC50) in series [1] (setting [4]) was determined as 28.2 µM. The IC50 in series [2] was 23.9 µM.
`CCCn1c(=O)[nH]c(=S)c2[nH]c(Cc3ccc(OC)c(OC)c3)nc21` [Ex. 9, 8-(3,4-dimethoxybenzyl)-3-propyl-6-thio-xanthine] registered a melting point of 237 to 239 °C. This compound also showed an IC50 in series [3] of 8.5 µM. For the same compound, the IC50 in series [1] (setting [4]) came to 23.6 µM.
`CCCn1c(=O)[nH]c(=S)c2[nH]c(Cc3ccc4ccccc4c3)nc21` [Ex. 10, 8-(2-naphthylmethyl)-3-propyl-6-thio-xanthine] registered a melting point of 220 to 223 °C. In series [3], this compound gave a half-maximal inhibitory concentration (IC50) of 2.8 µM. Moreover, in series [1] (setting [4]), the IC50 was found to be 2.7 µM. For the same compound, the IC50 in series [2] came to 3.8 µM.
`CC(C)c1nc2c([nH]1)c(=S)[nH]c(=O)n2-c1cccc(Cl)c1` [Ex. 11, 3-(3-Chlorophenyl)-8-isopropyl-6-thioxanthine]: the IC50 is 311 µM in series [1] (setting [4]) and 65.4 µM in series [2].
In the case of `COc1ccc(C2CNC(=O)C2)cc1OC1CCCC1` (centres unmarked) [Rolipram, reference compound], the IC50 in series [3] came to 2.6 µM; in series [1] (setting [4]) it was 790 µM.
`CCNc1nc(=O)n(Cc2ccc(OC)c(OC3CCCC3)c2)c2nc(C(C)C)[nH]c12` [compound 12, 3-(3-Cyclopentyloxy-4-methoxy-benzyl)-N^6-ethyl-8-isopropyl-isoguanine]: the melting point fell in the range of 110 to 115 °C.

In general, melting point refers to the temperature of the solid-liquid transition. The term IC50 denotes the concentration at which inhibition is half-maximal.
